One series is described as follows: in vitro. To be noted: human, cryopreserved hepatocytes.
The next series can be described thus: physchem. Particulars: buffer, pH 6.5.

One may read the hepatocyte CLint as a measure of how fast metabolising enzymes remove a compound, apart from limits set by blood flow. Read a low hepatocyte CLint as slow turnover. What is called chromatographic logD is lipophilicity estimated from chromatographic retention. A higher chromatographic logD goes with higher lipophilicity.

In the series “in vitro”, `CC(C)(C)c1cc(-c2cc(-c3ccc(C(=O)O)cc3)ccc2OCCO)ccc1N1CCCC1` [TRIFAROTENE] registered an intrinsic clearance (hepatocyte CLint) at 1.5 h, 1 µM of 72 µL/min/1e6 cells. Moreover, the chromatographic logD in “physchem” is 3.5.
`O=C(O)c1ccc(-c2ccc(OCCCCO)c(-c3ccc(N4CCCC4)c(C(F)(F)F)c3)c2)cc1` returned an intrinsic metabolic clearance (hepatocyte CLint) at 1.5 h, 1 µM in “in vitro” of 22 µL/min/1e6 cells. Besides, in “physchem”, the chromatographic logD turned out to be 2.8.
Take `CCN(CC)c1ccc(-c2cc(-c3ccc(C(=O)O)cc3)ccc2OCCCCO)cc1C(C)(C)C`: the intrinsic clearance (hepatocyte CLint) at 1.5 h, 1 µM in “in vitro” was found to be 33 µL/min/1e6 cells. The chromatographic logD in the series “physchem” is 4.3.
In the same order, the values of `CCN(CC)c1ccc(-c2cc(-c3ccc(C(=O)O)cc3)ccc2OCCCO)cc1` are 11 µL/min/1e6 cells and 1.9.

(Values after ChEMBL document CHEMBL4190387 (Bioorg Med Chem Lett, 2018).)
